Test results from US20050164234A1, “Methods of using mammalian RNase H and compositions thereof” (priority 1997, published 2005).
Strand notation (5' to 3'): a small letter for the sugar, then the base; units joined by * are phosphorothioate-linked, units joined directly phosphodiester-linked; [ ] holds rarer units or linkages, { } end groups; capitals alone tell only the bases. e = 2'-O-(2-methoxyethyl) (MOE); [5mC] = 5-methylcytosine; d = 2'-deoxy (DNA)

Key:
Format in all cases: cell-based
[1] = tested on: human RNase H1; assay: Screen of antisense compounds (gapped oligonucleotides, siRNA) in cells against human RNase H1; design: concentration or dose not given beside the values; settings: percent inhibition of RNase H enzyme levels; target H1
Experimental: (§1) Oligonucleotides were identified by screening in cells (Crooke, S. T., 2003, in Burger's Medicinal Chemistry, 6th ed., pp 115-166; Vickers et al., 2003, J. Biol. Chem. 278, 7108-7118).
(§2) For this experiment oligoribonucleotides were purchased from Dharmacon Research, Inc. (Boulder Colo.). siRNA duplexes were formed in the solution containing 20 μM each oligoribonucleotide (sense strand shown and antisense strand complement—generally with a one base overhang at each end), 100 mM potassium acetate, 30 mM HEPES-KOH pH 7.4, 2 mM magnesium acetates. Reactions were heated for 1 minute at 90° C. and incubated for 1 hour at 37° C. The control gapped antisense oligonucleotide, is ISIS 29848, […] (SEQ ID NO: 104), where N is a mixture of A, G, C and T. Bold residues are 2′-MOE residues. The siRNA controls are either the single strand sense RNA strand or other RNA duplexes that are not complementary to the target. For transfection of cells, cells were incubated with a mixture of 3 μg/ml lipofectin (Invitrogen, Carlsbad Calif.) per 1-200 nM oligonucleotide or siRNA in OptiMEM medium (Invitrogen). After 4 hours the transfection mixture was aspirated from the cells and replaced with fresh medium containing 10% fetal bovine serum and the cells were incubated at 37° C. in 5% CO2 until harvest or second transfection.

[2] = tested on: human RNase H2; assay: Antisense inhibition of human RNase H2 expression, Northern blot; design: % of control / % inhibition: concentration or dose not given beside the values; settings: for % inhibition / % of control: RNase H2 expression, Northern blot; for inhibition of human RNase H2 expression: summary of Table 3; for reduction of expression: dose response, A549 cells
Experimental: Total RNA was isolated from different human cell lines (ATCC, Rockville, Md.) using the guanidine isothiocyanate method (21). Ten μg of total RNA was separated on a 1.2% agarose/formaldehyde gel and transferred to Hybond-N+ (Amersham, Arlington Heights, Ill.) followed by fixing using UV crosslinker (Strategene, La Jolla, Calif.). The premade multiple tissue Northern Blot membranes were also purchased from Clontech (Palo Alto, Calif.). To detect RNase H2 mRNA, hybridization was performed by using ^32P-labeled human RNase H II cDNA in Quik-Hyb buffer (Strategene, La Jolla, Calif.) at 68 EC for 2 hours. After hybridization, membranes were washed in a final stringency of 0.1×SSC/0.1% SDS at 60 EC for 30 minutes and subjected to auto-radiography.
A series of antisense oligonucleotides were targeted to the human RNase H2 polynucleotide sequence (SEQ ID NO: 11). These compounds were all 2′-O-methoxyethyl “gapmers” with an 8-nucleotide deoxy gap and a phosphorothioate backbone. Cytosine residues are 5-methyl cytosines. The 2′-O-methoxyethyl (2′MOE) nucleotides are shown in bold.
The oligonucleotides shown in Table 2 were tested by Northern blot analysis for their ability to inhibit expression of human RNase H2. Results are expressed in Table 3.

[3] = tested on: human RNase H2; assay: Screen of antisense compounds (gapped oligonucleotides, siRNA) in cells against human RNase H2; design: concentration or dose not given beside the values; settings: percent inhibition of RNase H enzyme levels; target H2
Experimental: as §1, §2

Row | Sequence | % Inhib [1] | % inhibition [2] | % of control [2] | inhibition of human RNase H2 expression [2] | % Inhib [3] | reduction of expression ([2]; 200 nM) | reduction of expression ([2]; lowest dose tested 50 nM)
1 | AAGCCGAGCGUGGAGCCGGCG [Si-H1B] | 77.2% | – | – | – | – | – | –
2 | ACTCCAGGCCGCGTTCCAGG (antisense eA*e[5mC]*eT*e[5mC]*e[5mC]*eA*dG*dG*d[5mC]*d[5mC]*dG*d[5mC]*dG*dT*eT*e[5mC]*e[5mC]*eA*eG*eG) [ISIS 21959, 2′-O-methoxyethyl gapmer, 8-nucleotide deoxy gap, phosphorothioate backbone, targeted to human RNase H2] | – | 82% | 18% | at least 50% | 81.2% | – | –
3 | AGCTGAACCGGACAAACTGG (antisense eA*eG*e[5mC]*eT*eG*eA*dA*d[5mC]*d[5mC]*dG*dG*dA*d[5mC]*dA*eA*eA*e[5mC]*eT*eG*eG) [ISIS 21957, 2′-O-methoxyethyl gapmer, 8-nucleotide deoxy gap, phosphorothioate backbone, targeted to human RNase H2] | – | 68% | 32% | at least 50% | 68.1% | – | –
4 | CAAAAGGAAGTAGCTGGACC (antisense e[5mC]*eA*eA*eA*eA*eG*dG*dA*dA*dG*dT*dA*dG*d[5mC]*eT*eG*eG*eA*e[5mC]*e[5mC]) [ISIS 21962, 2′-O-methoxyethyl gapmer, 8-nucleotide deoxy gap, phosphorothioate backbone, targeted to human RNase H2] | – | 37% | 63% | – | 36.0% | – | –
5 | CACAGGCGAACTCAGGCGAC (all C 5-methyl, all phosphorothioate, sugars by position not given here; further chemistry not fully specified) [ISIS 21947, 2′-O-methoxyethyl gapmer, 8-nucleotide deoxy gap, phosphorothioate backbone, targeted to human RNase H2] | – | 63% | 37% | at least 50% | – | – | –
6 | CAGTTTCTCCACGAATTGCC (antisense e[5mC]*eA*eG*eT*eT*eT*d[5mC]*dT*d[5mC]*d[5mC]*dA*d[5mC]*dG*dA*eA*eT*eT*eG*e[5mC]*e[5mC]) [ISIS 21955, 2′-O-methoxyethyl gapmer, 8-nucleotide deoxy gap, phosphorothioate backbone, targeted to human RNase H2] | – | 33% | 67% | – | 33.3% | – | –
7 | CCACCTTGGCACAGATGCTG (all C 5-methyl, all phosphorothioate, sugars by position not given here; further chemistry not fully specified) [ISIS 21954, 2′-O-methoxyethyl gapmer, 8-nucleotide deoxy gap, phosphorothioate backbone, targeted to human RNase H2] | – | 77% | 23% | at least 50% | – | – | –
8 | CCAGUUUGUCCGGUUCAGCUG [Si 21957] | – | – | – | – | 42.4% | – | –
9 | CCCAGCCGACAAAGTCCGTG (all C 5-methyl, all phosphorothioate, sugars by position not given here; further chemistry not fully specified) [ISIS 21950, 2′-O-methoxyethyl gapmer, 8-nucleotide deoxy gap, phosphorothioate backbone, targeted to human RNase H2] | – | 68% | 32% | at least 50% | – | – | –
10 | CCCGCTCGCTCTCCAATAGG (all C 5-methyl, all phosphorothioate, sugars by position not given here; further chemistry not fully specified) [ISIS 21949, 2′-O-methoxyethyl gapmer, 8-nucleotide deoxy gap, phosphorothioate backbone, targeted to human RNase H2] | – | 82% | 18% | at least 50% | – | – | –
11 | CCTACGTGTGGTTCTCCTTA (antisense e[5mC]*e[5mC]*eT*eA*e[5mC]*eG*dT*dG*dT*dG*dG*dT*dT*d[5mC]*eT*e[5mC]*e[5mC]*eT*eT*eA) [ISIS 21960, 2′-O-methoxyethyl gapmer, 8-nucleotide deoxy gap, phosphorothioate backbone, targeted to human RNase H2] | – | 92% | 8% | at least 50% | 91.7% | > 80% | 60%
12 | CCTCTTTCTCCAGGATGGTC (antisense e[5mC]*e[5mC]*eT*e[5mC]*eT*eT*dT*d[5mC]*dT*d[5mC]*d[5mC]*dA*dG*dG*eA*eT*eG*eG*eT*e[5mC]) [ISIS 21958, 2′-O-methoxyethyl gapmer, 8-nucleotide deoxy gap, phosphorothioate backbone, targeted to human RNase H2] | – | 38% | 62% | – | 38.0% | – | –
13 | CCUGGAACGCGGCCUGGAGUC [Si 21959] | – | – | – | – | 53.8% | – | –
14 | CGCCTCAGCCGCCACCACCA (all C 5-methyl, all phosphorothioate, sugars by position not given here; further chemistry not fully specified) [ISIS 21946, 2′-O-methoxyethyl gapmer, 8-nucleotide deoxy gap, phosphorothioate backbone, targeted to human RNase H2] | – | 50% | 50% | at least 50% | – | – | –
15 | CGCGCCTGGTATGTCTCTGG (all C 5-methyl, all phosphorothioate, sugars by position not given here; further chemistry not fully specified) [ISIS 21952, 2′-O-methoxyethyl gapmer, 8-nucleotide deoxy gap, phosphorothioate backbone, targeted to human RNase H2] | – | 89% | 11% | at least 50% | – | approximately 70% | 60%
16 | CGGTGTCCACGAATACCTGG (all C 5-methyl, all phosphorothioate, sugars by position not given here; further chemistry not fully specified) [ISIS 21951, 2′-O-methoxyethyl gapmer, 8-nucleotide deoxy gap, phosphorothioate backbone, targeted to human RNase H2] | – | 74% | 26% | at least 50% | – | – | –
17 | GAAGCAAGGUGGGAGUGUGCU [Si 21961] | – | – | – | – | 15.2% | – | –
18 | GACCAUCCUGGAGAAAGAGGC [Si 21958] | – | – | – | – | 45.8% | – | –
19 | GCACACTCCCACCTTGCTTC (chemistry not fully specified) [ISIS 21961, 2′-O-methoxyethyl gapmer, 8-nucleotide deoxy gap, phosphorothioate backbone, targeted to human RNase H2] | – | 7% | 93% | – | 6.1% | – | –
20 | GGACAATAACAGATGGCGTA (eG*eG*eA*e[5mC]*eA*eA*dT*dA*dA*d[5mC]*dA*dG*dA*dT*eG*eG*e[5mC]*eG*eT*eA) [ISIS 21948] | – | 62% | 38% | at least 50% | – | – | –
21 | GGCAAUUCGUGGAGAAACUGC [Si 21955] | – | – | – | – | 19.2% | – | –
22 | GGTAGAGGGCATCTGCTTTG (eG*eG*eT*eA*eG*eA*dG*dG*dG*d[5mC]*dA*dT*d[5mC]*dT*eG*e[5mC]*eT*eT*eT*eG) [ISIS 21953] | – | 59% | 41% | at least 50% | – | – | –
23 | GGUCCAGCUACUUCCUUUUGG [Si 21962] | – | – | – | – | 0% | – | –
24 | TTTTGTCTTGGGATCATTGG (eT*eT*eT*eT*eG*eT*d[5mC]*dT*dT*dG*dG*dG*dA*dT*e[5mC]*eA*eT*eT*eG*eG) [ISIS 21956] | – | 63% | 37% | at least 50% | 63.1% | – | –
25 | UAAGGAGAACCACACGUAGGG [Si 21960] | – | – | – | – | 9.9% | – | –
